The structures appear in SMILES notation. The source made the active and inactive calls. The calls are words filed in the database; no cut-off is given here.

The subject of the first experiment is Musca domestica. Kind of experiment: Insecticidal activity against Musca domestica (housefly) assessed as paralysis at 28 degC measured per fly after 24 hr. The class given is functional.
Regarding `CCCCOc1ccc(OC)c([C@H]2OC[C@]3(O)[C@@H](Oc4c(OC)cccc4OC)OC[C@H]23)c1` (racemic), the LD50 worked out at 8 µg.

The subject of a further experiment is Musca domestica. Kind of experiment: Insecticidal activity against Musca domestica (housefly) assessed as paralysis at 28 degC measured after 24 hr at 10 ug topically. The class given is functional, organism-based.
Take `COc1ccc(O)cc1[C@H]1OC[C@]2(O[Si](C)(C)C(C)(C)C)[C@@H](Oc3c(OC)cccc3OC)OC[C@H]12` (racemic): the outcome was inactive. The same measure, in the same setting: the same measure for `COc1ccc(O)cc1[C@H]1OC[C@]2(O)[C@H](Oc3c(OC)cccc3OC)OC[C@H]12` (racemic): “inactive”; for `COc1ccc(O[Si](C)(C)C(C)(C)C)cc1[C@H]1OC[C@]2(O[Si](C)(C)C(C)(C)C)C(Oc3c(OC)cccc3OC)OC[C@H]12` (mixture of isomers): “inactive”.

In the case of `COCCOc1ccc(OC)c([C@H]2OC[C@]3(O)[C@@H](Oc4c(OC)cccc4OC)OC[C@H]23)c1` (racemic), the result was Active. Same read-out and setting: the same measure for `COc1ccc(OCc2ccc3c(c2)OCO3)cc1[C@H]1OC[C@]2(O)[C@@H](Oc3c(OC)cccc3OC)OC[C@H]12` (racemic): “inactive”. Same read-out and setting: the same measure for `COCCOc1ccc(OC)c([C@H]2OC[C@]3(O)[C@H](Oc4c(OC)cccc4OC)OC[C@H]23)c1` (racemic): “inactive”; for `COCCOCCOc1ccc(OC)c([C@H]2OC[C@]3(O)[C@@H](Oc4c(OC)cccc4OC)OC[C@H]23)c1` (racemic): “Active”.

Values taken from ChEMBL document CHEMBL3044759, “Synthesis and Insecticidal Activity of Lignan Analogs. (1)” (1991).
